The text below walks through data of patent US8617563B2, “Antichlamydial agents” (Duke University, priority 2011, dated 2013).

The assay deals with C. trachomatis LGV-L2. The assay is described as follows: Generation of infectious particles (IFU) and inclusion growth in infected HeLa cells. In kind it is cell-based. The protocol: FIG. 9 depicts (A) CPAF inhibitory peptides block the generation of Chlamydia infectious particles. L2-infected HeLa cells were treated at 12 hpi with increasing concentration of peptides. EBs were harvested at 30 hpi and inclusion-forming units (IFU) were quantified on fresh cell monolayers. (B-D) CPAF activity is required to maintain inclusion integrity. The integrity of the inclusion was determined by assessing the immunolocalization of the inclusion membrane marker IncA (red) and Chlamydia (green) (B) and by transmission electron microscopy (C). […] (D) The percentage of vimentin-positive inclusions was determined by IF in infected cells treated with SEQ ID NO:7 and SEQ ID NO:11 (12 hpi) peptides at 24 hpi. (E) Activation of inflammatory cytokines upon inhibition of CPAF activity. Levels of IL-8 supernatants from Chlamydia infected cells treated with peptides as in (B-D) were determined at 24 hpi by ELISA.
Cells were infected with an MOI of 1 and treated with CPAF inhibitor (SEQ ID NO:7) or control (SEQ ID NO:11) peptides at 12 hpi, fixed at 24 hpi and analyzed by IF with anti-L2 polyclonal antisera. Inclusion size was determined by measuring the inclusion diameter in μm by confocal microscopy of 50 infected cells. The number of cells with fragmented inclusions was determined by counting the number of infected cells out of 50 with more than one inclusion. […]

Where no end group is shown, it is not given here.

In the case of “SLFYSPMVPHFWAELRNHYATSGLKRRRRRRRRR-NH2 [SEQ ID NO:7]”, the “Yields of EBs (IFU)” value (L2-infected HeLa, peptide at 12 hpi, EBs harvested 30 hpi) is given as “significantly lowered yields of EBs”. In addition, the Inclusion growth result (MOI 1, peptide at 12 hpi, fixed 24 hpi) is reported as “stunted inclusion growth”.
